Columns and labels:
Format in all cases: biochemical
ACE [1] = target: T1, ACE (Rattus norvegicus, UniProt P47820); experiment: ACE inhibition activity using rat lung (Experiment A-2); details: rat lung membrane fraction, borate buffer pH 8.3
T1 construct: membrane fraction prepared from rat lung; from tissue; host or cells: rat lung, membrane fraction (method of Wu-Wong et al.)
T1 sequence (P47820 36-1313): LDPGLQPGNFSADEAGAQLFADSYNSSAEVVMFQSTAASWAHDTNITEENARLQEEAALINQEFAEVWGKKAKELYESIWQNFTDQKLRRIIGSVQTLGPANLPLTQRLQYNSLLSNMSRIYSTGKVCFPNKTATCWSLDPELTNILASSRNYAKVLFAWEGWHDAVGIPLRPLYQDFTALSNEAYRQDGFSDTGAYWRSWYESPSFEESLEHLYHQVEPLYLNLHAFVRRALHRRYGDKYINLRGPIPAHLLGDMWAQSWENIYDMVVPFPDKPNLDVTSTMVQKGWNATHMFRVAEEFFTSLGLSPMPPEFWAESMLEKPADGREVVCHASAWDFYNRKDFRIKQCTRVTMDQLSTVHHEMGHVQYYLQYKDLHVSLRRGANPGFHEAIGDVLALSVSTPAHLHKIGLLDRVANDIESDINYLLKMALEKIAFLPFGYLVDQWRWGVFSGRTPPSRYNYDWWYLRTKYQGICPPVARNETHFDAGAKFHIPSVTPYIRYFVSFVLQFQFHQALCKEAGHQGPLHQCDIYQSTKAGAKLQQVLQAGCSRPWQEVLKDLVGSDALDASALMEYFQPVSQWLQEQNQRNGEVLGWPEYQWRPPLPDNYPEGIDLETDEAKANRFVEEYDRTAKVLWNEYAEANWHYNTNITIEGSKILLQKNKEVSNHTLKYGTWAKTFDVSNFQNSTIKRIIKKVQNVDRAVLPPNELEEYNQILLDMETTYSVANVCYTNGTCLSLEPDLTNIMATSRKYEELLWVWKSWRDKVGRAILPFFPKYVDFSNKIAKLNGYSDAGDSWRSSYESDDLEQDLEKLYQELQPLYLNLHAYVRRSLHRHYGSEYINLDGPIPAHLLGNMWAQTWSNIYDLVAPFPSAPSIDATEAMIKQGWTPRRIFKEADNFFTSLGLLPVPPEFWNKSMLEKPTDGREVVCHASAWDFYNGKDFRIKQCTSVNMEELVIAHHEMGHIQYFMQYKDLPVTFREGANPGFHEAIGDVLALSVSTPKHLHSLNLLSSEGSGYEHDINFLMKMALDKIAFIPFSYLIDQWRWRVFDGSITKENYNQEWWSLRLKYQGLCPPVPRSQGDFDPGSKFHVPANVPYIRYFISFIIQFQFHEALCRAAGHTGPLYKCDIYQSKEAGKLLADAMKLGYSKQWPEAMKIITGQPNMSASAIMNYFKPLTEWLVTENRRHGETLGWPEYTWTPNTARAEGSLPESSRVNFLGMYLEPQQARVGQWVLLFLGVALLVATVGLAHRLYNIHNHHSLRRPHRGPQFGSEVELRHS
Procedure: (§1) The ACE inhibition activity was determined by using a membrane fraction prepared from rat lung in accordance with the method of Wu-Wong et al. (Characterization of Endthelin Converting Enzyme in Rat Lung., Junshyum R. Wu-Wong, Gerald, P. Budzik, Edward M. Devine and Terry J. Opgenorth, Biochem. Biophys. Res. Commun., 1990, 171, 1291-1296.).
The ACE activity was determined with the use of a modification (modified to a borate buffer, pH 8.3) of the method of Cushman and Cheung (Spectrophotometric Assay and Properties of the Angiotensin-Converting Enzyme of Rabbit Lung., Cushman, D. W. and Cheung H. S., 1971, 20, 1637-1648.).
(§2) In the presence of ACE, the hippurate liberated from hippuryl-histidyl-leucine (Hippuryl-His-Leu (PeptideInstitute Inc., Japan)) was extracted with ethyl acetate and then the absorbance was measured at a wavelength of 228 nm.
(§3) With respect to the ACE inhibition activity, the inhibitor was added to the experimental system as described above in such a manner as to give the final concentrations of 1, 3, 10, 30, 100, 300 and 1000 nM, an inhibition curve was prepared, and then the concentration at which 50% inhibition was achieved was taken as IC50.

NEP [2] = target: T2, NEP (Rattus norvegicus, UniProt P07861); experiment: NEP inhibition activity using rat renal cortex (Experiment A-1); set-up: membrane fraction prepared from rat renal cortex; from tissue; host or cells: rat renal cortex, membrane fraction (method of Booth and Kenny); details: rat renal cortex membrane fraction
T2 sequence (P07861 1-750): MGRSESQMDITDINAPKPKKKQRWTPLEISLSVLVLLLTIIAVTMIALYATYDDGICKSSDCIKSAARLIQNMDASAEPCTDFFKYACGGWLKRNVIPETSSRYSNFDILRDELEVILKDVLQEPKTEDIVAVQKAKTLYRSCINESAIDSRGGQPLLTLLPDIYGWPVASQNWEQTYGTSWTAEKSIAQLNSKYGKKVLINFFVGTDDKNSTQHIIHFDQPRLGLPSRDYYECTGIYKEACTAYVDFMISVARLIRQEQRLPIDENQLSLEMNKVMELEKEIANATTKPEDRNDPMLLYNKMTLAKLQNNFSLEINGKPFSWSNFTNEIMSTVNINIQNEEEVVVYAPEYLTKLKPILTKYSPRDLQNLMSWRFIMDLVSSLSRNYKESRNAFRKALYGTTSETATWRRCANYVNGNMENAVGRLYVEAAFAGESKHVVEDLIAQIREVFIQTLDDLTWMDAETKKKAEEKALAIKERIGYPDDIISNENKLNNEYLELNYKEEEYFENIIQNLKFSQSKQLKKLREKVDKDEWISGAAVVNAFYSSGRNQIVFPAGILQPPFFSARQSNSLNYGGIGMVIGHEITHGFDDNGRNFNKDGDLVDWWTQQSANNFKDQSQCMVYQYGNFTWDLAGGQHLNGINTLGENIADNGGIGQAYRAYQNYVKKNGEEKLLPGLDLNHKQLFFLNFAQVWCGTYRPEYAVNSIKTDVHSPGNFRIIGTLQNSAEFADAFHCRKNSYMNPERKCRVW
Procedure: The NEP activity was determined by using a membrane fraction prepared from rat renal cortex in accordance with the method of Booth and Kenny (A Rapid Metod for the Purificaton of Microvilli from Rabbit Kidney., Andrew G. Booth and A. John Kenny, Biochem j., 1974, 142, […].).
The NEP activity was determined by the following manner in accordance with the method of Orlowsky and Wilk (Purification and Specificity of a Membrane-Bound Metalloendopeptidase from Bovine Pituitaries., Marian Orlowsky and Shrwin Wilk, Biochemistry, 1981, 20, 4942-4950.).
(§4) As a substrate, benzoyl-glycyl-arginyl-arginyl-2-naphthylamide (benzoyl-Gly-Arg-Arg-2-naphthylamide (Nova Biochem, Switzerland)) was used. In the presence of an NEP enzyme preparation and excessive leucine aminopeptidase (sigma chemical Co., U.S.A.), the liberated naphthylamine was made to undergo color development with first garnet (Sigma chemical Co., U.S.A.), followed by the measurement of the absorbance at a wavelength of 540 nm.
as §3, with “NEP” for “ACE”

ACE [3] = target: T1, ACE; experiment: ACE inhibition activity using rat lung (Experiment C-2); details: Table C-1; rat lung membrane fraction, borate buffer pH 8.3
Procedure: as §1, with “Gerald” for “Gerald,”
The ACE activity was determined with the use of a modification (modified to a borate buffer, pH 8.3) of the method of Cushman and Cheung (Spectrophotometric Assay and Properties of the Angiotensin-Converting Enzyme of Rabbit Lung., Cushman D. W. and Cheung H. S., 1971, 20, 1637-1648.).
as §2
as §3, with “test compound” for “inhibitor”, “reaction” for “experimental”, “IC50. As a comparative compound, [4S-[4α,7α(R*),12bβ]]-7-[(1-oxo-2-(S)-thio-3-phenyl-propyl)amino]-1,2,3,4,6,7,8,12b-octahydro-6-oxopyrido-[2,1-a][2]benzazepine-4-carboxylic acid was used.” for “IC50.”

NEP [4] = target: T2, NEP; experiment: NEP inhibition activity (Experiment C-1); details: Table C-1
Procedure: The NEP activity was determined by the following manner in accordance with the method of Orlowsky and Wilk (Purification and Specificity of a Membrane-Bound Metalloendpeptidase from Bovine Pituitaries., Marian Orlowsky and Shrwin Wilk, Biochemistry, 1981, 20, 4942-4950.).
as §4
as §3, with “NEP” for “ACE”, “test compound” for “inhibitor”, “IC50. As a comparative compound, [4S-[4α,7α(R*),12bβ]]-7-[(1-oxo-2-(S)-thio-3-phenyl-propyl)amino]-1,2,3,4,6,7,8,12b-octahydro-6-oxopyrido-[2,1-a][2]benzazepine-4-carboxylic acid was used.” for “IC50.”

ACE [5] = target: T1, ACE; experiment: ACE inhibition activity (Experiment E-1); details: rat lung membrane fraction, pH 8.3
Procedure: As a source of the enzyme ACE, a membrane fraction prepared from rat lung in accordance with the method of Wu-Wong et al. (Characterization of Endthelin Converting Enzyme in Rat Lung., Jinshyum R. Wu-Wong, Gerald, P. Budzik, Edward M. Devine and Terry J. Opgenorth, Biochem. Biophys. Res. Commun., 1990, 171, 1291-1296.) was used. The ACE activity was determined with the use of a modification (modified to a borate buffer pH 8.3) of the method of Cushman and Cheung (Spectrophotometric Assay and Properties of the Angiotensin-Converting Enzyme of Rabbit Lung., Cushman D. W. and Cheung H. S., 1971, 20, 1637-1648.). Now the procedure will be briefly described.
as §2
(§5) To determine the NEP inhibition activity and the ACE inhibition activity, the inhibitor was added to the assay systems of both enzyme activities as described above in such a manner as to give the final concentrations of 1, 3, 10, 30, 100, […] and 1000 nM and inhibition curves were prepared. Then the concentration at which 50% inhibition was achieved was taken as IC50.

NEP [6] = target: T2, NEP; experiment: NEP inhibition activity (Experiment E-1); set-up: membrane fraction prepared from rat renal cortex; from tissue; host or cells: rat renal cortex, membrane fraction (method of Booth and Kenny); details: rat renal cortex membrane fraction
Procedure: As a source of the enzyme NEP, a membrane fraction prepared from rat renal cortex in accordance with the method of Booth and Kenny (A Rapid Method for the Purification of Microvilli from Rabbit Kidney., Andrew G. Booth and A. John Kenny, Biochem. j., 1974, 142,575-581.) was employed. The NEP activity was determined in accordance with the method of Orlowsky and Wilk (Purification and Specificity of a Membrane-Bound Metalloendpeptidase from Bovine Pituitaries., Marian Orlowsky and Shrwin Wilk, Biochemistry, 1981, 20, 4942-4950.). Now the procedure will be briefly described.
as §4, with “(benzoyl-Gly-Arg-Arg-2 naphthylamide” for “(benzoyl-Gly-Arg-Arg-2-naphthylamide”
as §5

Row | SMILES | IC50 (ACE [1]) [nM] | IC50 (NEP [2]) [nM] | IC50 (ACE [3]) [nM] | IC50 (NEP [4]) [nM] | further results
1 | O=C(O)CN1C(=O)C(NC(=O)[C@@H](S)Cc2ccccc2)CCc2ccc(-c3ccccc3)cc21 (stereo partly drawn) [Example A-3, 1-Carboxymethyl-3-[(S)-2-mercapto-3-phenylpropionylamino]-8-phenyl-1H-[1]benzazepin-2-one] | 50 | 90 | – | – | –
2 | CC(C)[C@H](S)C(=O)NC1CCc2ccc(-c3ccccc3)cc2N(CC(=O)O)C1=O (stereo partly drawn) [Example A-5] | 50 | 160 | – | – | –
3 | O=C(O)CN1C(=O)C(NC(=O)[C@@H](S)Cc2ccccc2)CCc2ccccc21 (stereo partly drawn) [Example A-7, 1-Carboxymethyl-3-[(S)-2-mercapto-3-phenylpropionylamino]1H-[1]benzazepin-2-one] | 10 | 8.2 | – | – | –
4 | CC[C@H](C)[C@H](S)C(=O)N[C@H]1CSc2ccccc2N(CC(=O)O)C1=O [Example C-12, (R)-3-[[(2S,3S)-3-Methyl-1-oxo-2-thiopentyl]amino]-5-carboxymethyl-2,3-dihydro-1,5-benzothiazepin-4(5H)-one] | – | – | 12.5 | 15.1 | –
5 | CC[C@H](C)[C@H](S)C(=O)N[C@H]1Cc2ccc(NS(C)(=O)=O)cc2[C@H]2CCC[C@@H](C(=O)O)N2C1=O [Example C-15, [4S-[4α,7α(R*),12bβ]]-11-Methylsulfonylamino-7-[[(2S,3S)-3-methyl-1-oxo-2-thiopentyl]amino]-6-oxo-1,2,3,4,6,7,8,12b-octahydropyrido[2,1-a][2]benzazepine-4-carboxylic acid] | – | – | 12.5 | 6.6 | –
6 | COc1ccc(C[C@H](S)C(=O)N[C@H]2Cc3ccc(-c4ccccc4)cc3[C@H]3CCC[C@@H](C(=O)O)N3C2=O)cc1 [Example E-7, [4S-[4α,7α(R*),12bβ]]-7-[(S)-2-Mercapto-3-(4-methoxyphenyl)propionylamino]-6-oxo-11-phenyl-1,2,3,4,6,7,8,12b-octahydropyrido[2.1-a][2]benzazepine-4-carboxylic acid] | – | – | – | – | IC50 (ACE [5]): 11 nM; IC50 (NEP [6]): 45 nM
